ChEMBL document CHEMBL1201862, “PubChem BioAssay data set” (2004)
Activity calls are given as the source filed them.

Columns and labels:
[1] = viability of PTEN-deleted HCT116 cells – cell-based, HCT116 PTEN knockout, dose response (AID 1047); type: functional;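 further: HCT116 colon tumor cells with PTEN knocked out; cells exposed to compound for 60 hours before readout; potency for loss of cell viability measured by luminescence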
[2] = viability of HCT116 lacking mutant beta-catenin – cell-based, human colon tumor, dose response (AID 1045); type: functional;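 further: HCT116 colon tumor cells with beta catenin knocked out; cells exposed to compound for 60 hours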
[3] = molecular target: Glycogen synthase kinase-3 alpha (Homo sapiens, UniProt P49840); experiment: Inhibition of Human GSK-3 alpha Activity Measured in Biochemical System Using Microfluidics - 2063-06_Inhibitor_Dose_DryPowder_Activity_Set2. [Related pubchem assays (depositor defined):AID2709]
[4] = molecular target: Glycogen synthase kinase-3 beta (Homo sapiens, UniProt P49841); experiment: Inhibition of Human GSK-3 beta Activity Measured in Biochemical System Using Microfluidics - 2063-05_Inhibitor_Dose_DryPowder_Activity_Set2. [Related pubchem assays (depositor defined):AID2709]
[5] = molecular target: Dual specificity protein kinase CLK1 (Homo sapiens, UniProt P49759); experiment: inhibition of human CLK1 activity – biochemical, cherry-picked samples, selectivity assay for Dyrk1A inhibitor project, dose response (AID 588811)
[6] = molecular target: Dual specificity tyrosine-phosphorylation-regulated kinase 1A (Rattus norvegicus, UniProt Q63470); type: biochemical, Homo sapiens
Melanocortin receptor 4 = Melanocortin receptor 4 (Homo sapiens, UniProt P32245); experiment: inhibitors of MC4R cAMP signaling – cell-based, TR-FRET, biased antagonists, dose response (AID 602298); type: functional;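 further: antagonist potency against agonist-stimulated cAMP production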
[7] = cAMP pathway inhibition in counterscreen cell line – TR-FRET cAMP detection, counter-screen for MC4R biased antagonist project, dose response (AID 602305); type: functional, cell-based;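 further: U2OS cells stimulated with forskolin near its EC80 as the cAMP inducer; potency is for inhibition of forskolin-stimulated cAMP signaling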
Hexokinase-1 = molecular target: T1, Hexokinase-1 (Homo sapiens, UniProt P19367); experiment: SAR analysis of small molecule inhibitors of hexokinase domain containing I (HKDC1) in the hexokinase 1 selectivity assay. [Related pubchem assays (depositor defined):AID493160, AID493190]; type: functional
T1 sequence (P19367 whole entry): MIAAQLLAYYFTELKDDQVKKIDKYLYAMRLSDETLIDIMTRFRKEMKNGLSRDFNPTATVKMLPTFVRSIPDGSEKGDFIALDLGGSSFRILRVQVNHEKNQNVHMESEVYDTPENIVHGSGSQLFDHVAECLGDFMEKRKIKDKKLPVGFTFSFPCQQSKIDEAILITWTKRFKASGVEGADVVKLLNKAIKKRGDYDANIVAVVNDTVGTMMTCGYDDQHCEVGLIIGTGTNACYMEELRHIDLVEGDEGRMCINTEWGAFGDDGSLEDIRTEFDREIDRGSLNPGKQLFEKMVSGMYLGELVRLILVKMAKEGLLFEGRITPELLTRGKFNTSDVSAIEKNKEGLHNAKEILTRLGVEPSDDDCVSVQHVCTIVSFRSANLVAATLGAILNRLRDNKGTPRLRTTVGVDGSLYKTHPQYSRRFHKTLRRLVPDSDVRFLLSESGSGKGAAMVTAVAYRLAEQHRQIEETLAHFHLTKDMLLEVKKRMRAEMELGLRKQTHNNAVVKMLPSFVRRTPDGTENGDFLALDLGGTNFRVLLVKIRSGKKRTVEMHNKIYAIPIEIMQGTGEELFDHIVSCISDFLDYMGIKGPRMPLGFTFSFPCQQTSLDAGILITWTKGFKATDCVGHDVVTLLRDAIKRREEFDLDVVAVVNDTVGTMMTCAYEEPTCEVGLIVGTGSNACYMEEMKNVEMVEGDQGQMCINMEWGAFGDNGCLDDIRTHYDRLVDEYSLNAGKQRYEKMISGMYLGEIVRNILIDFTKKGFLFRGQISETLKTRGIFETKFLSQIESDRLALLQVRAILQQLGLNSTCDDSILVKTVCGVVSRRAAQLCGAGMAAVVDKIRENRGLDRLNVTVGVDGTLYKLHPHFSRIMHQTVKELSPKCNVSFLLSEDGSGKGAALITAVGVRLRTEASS

Hexokinase HKDC1 = molecular target: T2, Hexokinase HKDC1 (Homo sapiens, UniProt Q2TB90); experiment: SAR analysis of small molecule inhibitors of hexokinase domain containing I (HKDC1). [Related pubchem assays (depositor defined):AID493160, AID493190]; type: functional
T2 sequence (Q2TB90 whole entry): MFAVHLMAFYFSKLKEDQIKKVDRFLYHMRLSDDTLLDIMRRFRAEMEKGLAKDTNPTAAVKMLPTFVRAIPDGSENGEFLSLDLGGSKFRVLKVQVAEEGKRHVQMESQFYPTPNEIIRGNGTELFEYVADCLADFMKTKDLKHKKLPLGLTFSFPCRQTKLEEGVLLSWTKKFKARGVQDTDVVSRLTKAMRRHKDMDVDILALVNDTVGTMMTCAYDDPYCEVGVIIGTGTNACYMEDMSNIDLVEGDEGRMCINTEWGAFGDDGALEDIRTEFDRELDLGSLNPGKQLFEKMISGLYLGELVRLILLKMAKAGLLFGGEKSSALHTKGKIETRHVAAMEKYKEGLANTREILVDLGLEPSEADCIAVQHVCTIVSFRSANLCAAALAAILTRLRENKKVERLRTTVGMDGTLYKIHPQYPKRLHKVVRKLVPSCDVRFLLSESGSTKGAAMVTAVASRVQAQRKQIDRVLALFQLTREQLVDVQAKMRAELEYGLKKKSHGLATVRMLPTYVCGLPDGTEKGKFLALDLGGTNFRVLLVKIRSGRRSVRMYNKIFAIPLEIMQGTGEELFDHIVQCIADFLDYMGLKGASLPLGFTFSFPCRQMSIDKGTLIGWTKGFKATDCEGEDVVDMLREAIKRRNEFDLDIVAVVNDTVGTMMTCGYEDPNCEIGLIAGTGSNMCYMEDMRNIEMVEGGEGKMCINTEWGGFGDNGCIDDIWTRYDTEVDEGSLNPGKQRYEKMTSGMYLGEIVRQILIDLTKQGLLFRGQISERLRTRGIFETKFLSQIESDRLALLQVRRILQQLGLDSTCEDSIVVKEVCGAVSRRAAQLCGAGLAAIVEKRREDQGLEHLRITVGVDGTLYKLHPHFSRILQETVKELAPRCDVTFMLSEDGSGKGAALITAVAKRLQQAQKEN

[8] = Luminescence-based counterscreen assay for KLF5 inhibitors: dose response cell-based high throughput screening assay to identify cytotoxic compounds using the IEC-6 intestinal epithelial cell line. [Related pubchem assays: 1700 (Primary screen.), 1834 (Confirmation screen.), 1858 (Summary AID.), 1905 (Counterscreen.)]; type: functional
Jurkat = experiment: blockers of NF-kB activation in T cells – Jurkat, luciferase reporter, luminescence, B- and T-cell, dose response (AID 489004); type: functional, cell-based; details: Homo sapiens;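 further: NF-kB luciferase reporter Jurkat cells stimulated with PMA plus ionomycin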
[9] = HEK-293T viability loss, compound-treated – cell-based, uHTS hits, cytotoxicity control for B/T-cell NF-kB inhibitor project, dose response (AID 489019); type: functional;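 further: IC50 reflects cytotoxicity as loss of cell viability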
[10] = molecular target: Luciferin 4-monooxygenase (Photinus pyralis, UniProt P08659); experiment: inhibition of purified Photinus pyralis luciferase – biochemical, dry powder samples, plate reader, dose response (AID 588451)
H4 [11] = experiment: inhibitors of control reporter signal in H4 cells – cell-based, plate reader, dry powder samples, counter-screen for prion reporter project, dose response (AID 540255); type: functional; details: Homo sapiens
H4 [12] = experiment: Amyloid Precursor 5' UTR neuroblastoma cell reporter line Measured in Cell-Based System Using Plate Reader - 2078-04_Inhibitor_Dose_DryPowder_Activity. [Related pubchem assays (depositor defined):AID488894]; type: functional; details: Homo sapiens
H4 [13] = experiment: Inhibitors of Prion Protein 5' UTR mRNA Measured in Cell-Based System Using Plate Reader - 2078-01_Inhibitor_Dose_DryPowder_Activity. [Related pubchem assays (depositor defined):AID488894]; type: functional; details: Homo sapiens
[14] = blockers of HIV-1 envelope-mediated cell-cell fusion – cherry-pick, dose response (AID 652057); type: functional, cell-based
[15] = blockers of HIV-1 ZM109 envelope-driven cell-cell fusion – HeLa effector, CEM target cells, luciferase, cherry-pick, dose response (AID 652058); type: functional, cell-based;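 further: luciferase signal from HIV-1 Env mediated cell-cell fusion of effector and target cells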
Paired box protein Pax-8 = Paired box protein Pax-8 (Homo sapiens, UniProt Q06710); experiment: PAX8 transcriptional activity inhibition in RMG-I – RMG-I cells, luciferase, cherry-pick, dose response (AID 687027); type: functional, cell-based;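 further: luciferase reporter driven by Pax8 target thyroperoxidase promoter measured by SteadyGlo luminescence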
[16] = off-target signal loss in HeLa-CEM21 co-culture – HeLa F-luc CTL cells, cherry-picked, counter-screen for HIV-1 Env fusion inhibitor project, dose response (AID 652040); type: functional, cell-based;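 further: potency for signal decrease marking cytotoxic or nonspecific inhibition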
[17] = HIV-1 AD8 envelope cell-cell fusion blockers – cherry-pick, dose response (AID 652062); type: functional, cell-based;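 further: luciferase signal from cell-cell fusion driven by HIV-1 clade B AD8 Env; potency is for inhibitors of fusion seen as a drop in luminescence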
[18] = blockers of bursicon-stimulated LGR2 cAMP reporter – cell-based, HEK293, CRE-luciferase reporter, cherry pick, set 2, dose response (AID 743343); type: functional;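 further: transfected cells were stimulated with diluted bursicon conditioned medium after compound addition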
[19] = blockade of melanocortin 4 receptor signaling – cell-based, plate reader, cherry pick, counter-screen for LGR2 antagonist project, dose response (AID 743444); type: functional;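 further: transfected HEK 293 cells stimulated with alpha-MSH peptide; potency of inhibitors of the alpha-MSH evoked signal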
[20] = molecular target: Benomyl/methotrexate resistance protein (Candida albicans, UniProt P28873); experiment: Candida albicans Mdr1 pump inhibition curves – singleplex, Cherry Pick1 hits, dose response (AID 588608); type: functional
[21] = molecular target: Multidrug resistance protein CDR1 (Candida albicans, UniProt P43071); experiment: Candida albicans Cdr1 pump inhibition curves – singleplex, Cherry Pick2 set, dose response (AID 623996); type: functional; details: read-out: EC50_MICROM
[22] = molecular target: Platelet-activating factor acetylhydrolase 2, cytoplasmic (Mus musculus, UniProt Q8VDG7); experiment: Late stage assay provider results from the probe development effort to identify inhibitors of PAFAH2: Fluorescence-based biochemical gel-based Activity-Based Protein Profiling (ABPP) IC50. [Related pubchem assays (depositor defined):AID492956, AID492969, AID493030]
Sequence of Platelet-activating factor acetylhydrolase 2, cytoplasmic (Q8VDG7 whole entry): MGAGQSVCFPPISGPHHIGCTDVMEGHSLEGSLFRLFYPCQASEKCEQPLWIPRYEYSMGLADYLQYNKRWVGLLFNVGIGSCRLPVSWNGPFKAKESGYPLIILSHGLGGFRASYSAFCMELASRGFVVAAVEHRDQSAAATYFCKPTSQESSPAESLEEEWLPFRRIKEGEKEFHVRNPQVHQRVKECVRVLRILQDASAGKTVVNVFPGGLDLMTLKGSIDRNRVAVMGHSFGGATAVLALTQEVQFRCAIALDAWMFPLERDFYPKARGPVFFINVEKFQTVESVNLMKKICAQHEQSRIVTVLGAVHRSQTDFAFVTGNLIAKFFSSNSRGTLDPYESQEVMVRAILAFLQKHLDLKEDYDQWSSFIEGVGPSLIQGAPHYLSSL

Sequence of Glycogen synthase kinase-3 alpha (P49840 whole entry): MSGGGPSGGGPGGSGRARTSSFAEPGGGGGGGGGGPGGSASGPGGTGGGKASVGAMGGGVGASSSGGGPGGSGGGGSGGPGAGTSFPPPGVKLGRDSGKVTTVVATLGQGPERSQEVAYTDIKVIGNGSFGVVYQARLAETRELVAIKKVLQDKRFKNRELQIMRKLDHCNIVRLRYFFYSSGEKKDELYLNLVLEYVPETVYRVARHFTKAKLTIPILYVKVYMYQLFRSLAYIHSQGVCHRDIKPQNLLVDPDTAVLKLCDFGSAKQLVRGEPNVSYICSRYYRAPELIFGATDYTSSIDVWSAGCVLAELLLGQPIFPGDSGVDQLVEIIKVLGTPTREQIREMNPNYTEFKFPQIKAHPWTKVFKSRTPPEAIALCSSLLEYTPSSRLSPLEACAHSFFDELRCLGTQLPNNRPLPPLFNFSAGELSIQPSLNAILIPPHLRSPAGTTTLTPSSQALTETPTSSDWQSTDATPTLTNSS
Sequence of Paired box protein Pax-8 (Q06710 whole entry, the tested form may be a part): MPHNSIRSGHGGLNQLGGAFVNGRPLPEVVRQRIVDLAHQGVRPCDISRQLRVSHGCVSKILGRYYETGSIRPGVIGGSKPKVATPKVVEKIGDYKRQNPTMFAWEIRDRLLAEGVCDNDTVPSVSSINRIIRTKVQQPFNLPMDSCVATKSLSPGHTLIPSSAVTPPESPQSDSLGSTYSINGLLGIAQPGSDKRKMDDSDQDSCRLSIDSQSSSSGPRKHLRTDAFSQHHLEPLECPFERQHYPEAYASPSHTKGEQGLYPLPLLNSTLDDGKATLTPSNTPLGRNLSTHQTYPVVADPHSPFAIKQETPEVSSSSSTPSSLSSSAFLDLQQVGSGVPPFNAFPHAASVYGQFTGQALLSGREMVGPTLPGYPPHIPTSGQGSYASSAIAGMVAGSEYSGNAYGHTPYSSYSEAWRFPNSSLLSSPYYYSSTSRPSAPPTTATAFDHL
Sequence of Glycogen synthase kinase-3 beta (P49841 whole entry): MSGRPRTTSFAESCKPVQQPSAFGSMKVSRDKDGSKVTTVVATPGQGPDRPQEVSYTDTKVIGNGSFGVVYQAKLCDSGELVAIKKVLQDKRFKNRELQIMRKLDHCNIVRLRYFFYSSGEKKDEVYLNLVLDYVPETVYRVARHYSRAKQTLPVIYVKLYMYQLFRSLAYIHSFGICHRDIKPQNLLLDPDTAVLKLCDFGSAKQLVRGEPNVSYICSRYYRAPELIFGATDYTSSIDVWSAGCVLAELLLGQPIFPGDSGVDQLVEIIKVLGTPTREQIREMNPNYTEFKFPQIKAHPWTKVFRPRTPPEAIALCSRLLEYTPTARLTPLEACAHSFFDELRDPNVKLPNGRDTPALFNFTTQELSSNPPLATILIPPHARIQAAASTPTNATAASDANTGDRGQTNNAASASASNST
Sequence of Melanocortin receptor 4 (P32245 whole entry): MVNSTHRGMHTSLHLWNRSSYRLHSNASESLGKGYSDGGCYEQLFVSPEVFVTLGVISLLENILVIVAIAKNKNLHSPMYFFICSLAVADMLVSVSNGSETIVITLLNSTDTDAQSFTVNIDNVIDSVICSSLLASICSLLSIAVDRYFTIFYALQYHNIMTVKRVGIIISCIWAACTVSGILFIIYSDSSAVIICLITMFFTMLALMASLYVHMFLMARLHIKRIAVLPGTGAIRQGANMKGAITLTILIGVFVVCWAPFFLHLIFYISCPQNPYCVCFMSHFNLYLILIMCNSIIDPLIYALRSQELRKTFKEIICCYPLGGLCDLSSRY
Sequence of Benomyl/methotrexate resistance protein (P28873 whole entry): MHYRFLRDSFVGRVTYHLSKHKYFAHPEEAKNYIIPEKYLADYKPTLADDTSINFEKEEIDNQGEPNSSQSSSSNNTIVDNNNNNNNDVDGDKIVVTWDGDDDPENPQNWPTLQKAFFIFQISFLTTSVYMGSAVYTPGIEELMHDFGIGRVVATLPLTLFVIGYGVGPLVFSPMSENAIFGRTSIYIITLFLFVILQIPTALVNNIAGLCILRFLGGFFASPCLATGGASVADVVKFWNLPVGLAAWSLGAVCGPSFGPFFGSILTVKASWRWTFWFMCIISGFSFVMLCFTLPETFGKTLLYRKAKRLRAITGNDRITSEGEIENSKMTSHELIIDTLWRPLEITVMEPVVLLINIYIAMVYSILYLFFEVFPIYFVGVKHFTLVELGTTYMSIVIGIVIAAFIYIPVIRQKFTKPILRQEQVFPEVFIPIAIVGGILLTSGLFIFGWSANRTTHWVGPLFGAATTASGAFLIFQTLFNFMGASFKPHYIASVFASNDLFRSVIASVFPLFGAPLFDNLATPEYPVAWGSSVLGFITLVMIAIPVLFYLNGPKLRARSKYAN
Sequence of Multidrug resistance protein CDR1 (P43071 whole entry, looked up): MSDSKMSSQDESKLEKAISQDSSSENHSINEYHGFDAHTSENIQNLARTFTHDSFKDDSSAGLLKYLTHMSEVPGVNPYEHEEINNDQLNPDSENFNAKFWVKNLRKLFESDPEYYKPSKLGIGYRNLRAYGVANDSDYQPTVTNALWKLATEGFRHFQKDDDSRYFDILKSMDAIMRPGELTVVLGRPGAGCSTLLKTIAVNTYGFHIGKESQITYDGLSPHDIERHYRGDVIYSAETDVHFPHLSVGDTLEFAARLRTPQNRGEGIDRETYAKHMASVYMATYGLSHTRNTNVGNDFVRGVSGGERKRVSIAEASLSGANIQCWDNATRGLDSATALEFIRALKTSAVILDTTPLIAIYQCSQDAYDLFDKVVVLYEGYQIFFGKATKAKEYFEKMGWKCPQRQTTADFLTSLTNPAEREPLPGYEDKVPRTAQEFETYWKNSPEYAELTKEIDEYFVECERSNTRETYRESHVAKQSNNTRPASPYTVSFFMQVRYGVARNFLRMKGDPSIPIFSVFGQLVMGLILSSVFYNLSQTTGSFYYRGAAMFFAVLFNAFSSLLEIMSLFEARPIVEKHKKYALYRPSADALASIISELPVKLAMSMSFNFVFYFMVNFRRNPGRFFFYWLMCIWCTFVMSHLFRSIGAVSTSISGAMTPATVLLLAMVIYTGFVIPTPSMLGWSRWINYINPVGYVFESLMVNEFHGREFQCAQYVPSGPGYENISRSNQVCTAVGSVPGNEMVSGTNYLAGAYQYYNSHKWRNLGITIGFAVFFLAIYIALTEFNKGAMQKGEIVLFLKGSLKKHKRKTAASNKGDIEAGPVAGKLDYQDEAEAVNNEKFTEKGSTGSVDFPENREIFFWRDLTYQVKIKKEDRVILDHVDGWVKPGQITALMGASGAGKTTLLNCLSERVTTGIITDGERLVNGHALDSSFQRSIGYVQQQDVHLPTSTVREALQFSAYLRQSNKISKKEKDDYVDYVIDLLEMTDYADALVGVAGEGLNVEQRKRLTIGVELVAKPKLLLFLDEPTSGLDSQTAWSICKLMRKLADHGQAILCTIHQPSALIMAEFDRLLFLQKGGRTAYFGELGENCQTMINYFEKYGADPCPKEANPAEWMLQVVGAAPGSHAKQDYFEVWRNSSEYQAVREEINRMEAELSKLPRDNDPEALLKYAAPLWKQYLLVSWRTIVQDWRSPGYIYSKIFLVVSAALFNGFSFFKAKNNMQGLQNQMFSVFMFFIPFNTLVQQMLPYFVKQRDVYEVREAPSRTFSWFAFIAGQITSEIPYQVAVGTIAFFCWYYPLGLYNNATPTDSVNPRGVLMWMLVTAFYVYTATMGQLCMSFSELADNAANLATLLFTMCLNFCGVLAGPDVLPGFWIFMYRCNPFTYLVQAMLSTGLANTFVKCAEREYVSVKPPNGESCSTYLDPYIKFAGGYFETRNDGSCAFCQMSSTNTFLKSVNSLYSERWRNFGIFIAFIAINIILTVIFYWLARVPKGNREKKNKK
Sequence of Luciferin 4-monooxygenase (P08659 whole entry): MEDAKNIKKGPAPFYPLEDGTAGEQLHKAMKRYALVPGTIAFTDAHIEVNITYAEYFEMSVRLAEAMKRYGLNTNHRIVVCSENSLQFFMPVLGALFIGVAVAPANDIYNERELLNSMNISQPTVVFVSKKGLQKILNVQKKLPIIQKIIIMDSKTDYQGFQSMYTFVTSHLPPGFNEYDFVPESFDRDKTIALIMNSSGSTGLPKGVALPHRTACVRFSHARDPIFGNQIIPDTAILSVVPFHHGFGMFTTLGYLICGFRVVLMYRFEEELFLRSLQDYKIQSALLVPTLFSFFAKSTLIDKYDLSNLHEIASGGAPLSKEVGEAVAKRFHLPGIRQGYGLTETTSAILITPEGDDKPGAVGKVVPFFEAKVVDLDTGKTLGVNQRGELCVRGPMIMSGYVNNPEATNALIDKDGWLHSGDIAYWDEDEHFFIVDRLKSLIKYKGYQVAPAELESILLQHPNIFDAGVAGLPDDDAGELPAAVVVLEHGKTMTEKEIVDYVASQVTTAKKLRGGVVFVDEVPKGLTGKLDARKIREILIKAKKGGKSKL

## CCOC(=O)c1ccc2ncc(C(=O)OCC)c(Nc3ccc(N4CCOCC4)cc3)c2c1
[1]
  EC50: 18.5 µM (active)
[2]
  EC50: 21.4 µM (active)
[3]
  AC50: 3.56 µM (active)
[4]
  AC50: 1.16 µM (active)
[5]
  AC50: 0.227 µM (active)
[6]
  AC50: 0.257 µM (active)
Melanocortin receptor 4
  IC50: 8.67 µM (active)
[7]
  IC50: > 64.6 µM (inactive)

## Cc1ccccc1/C=C\c1nc2ccccc2c(=O)n1Cc1ccccc1
Hexokinase-1
  IC50: > 80 µM (inactive)
Hexokinase HKDC1
  IC50: > 80 µM (inactive)

## O=C(Nc1cccc(C(=O)O)c1)Nc1ccc2c(c1)OCO2
[8]
  IC50: > 39.8 µM (not active)
Jurkat
  IC50: 1.77 µM (active)
[9]
  IC50: > 80 µM (inactive)
[10]
  AC50: 3.34 µM (active)
H4 [11]
  AC50: 1.97 µM (active)
H4 [12]
  AC50: 0.145 µM (active)
H4 [13]
  AC50: 0.333 µM (active)
[14]
  AC50: 0.605 µM (active)
[15]
  AC50: 5.37 µM (active)
Paired box protein Pax-8
  AC50: 5.13 µM (active)
[16]
  AC50: 1.81 µM (active)
[17]
  AC50: 2.74 µM (active)
[18]
  AC50: 1.53 µM (active)
[19]
  AC50: 1.47 µM (active)

## COc1ccc(S(=O)(=O)N(C)C[C@H]2Oc3c(NC(=O)NC4CCCCC4)cccc3C(=O)N([C@H](C)CO)C[C@@H]2C)cc1
[20]
  EC50: 10.1 µM (active)
[21]
  EC50: 10.4 µM (active)

## O=C(N1CCCC1)n1ncc(-c2ccc(Oc3ccccc3)cc2)n1
[22]
  IC50: 0.002 µM (active)
